# Laboratory results taken from US20220133722A1, “PHARMACEUTICAL COMPOSITIONS” (QUE ONCOLOGY PTY LTD, priority 2019, published 2022).
# Values joined by “and” are separate entries in the source; they are usually repeats but may differ in a detail not shown here. Identical values can stand only once.
# Assay: Part 2 PK study: 200 mg QD versus 100 mg BID for 10 days under fed conditions
# Assay type: in vivo, human
# Settings: for AUC0-last / AUC0-tau / Cavg / Cmax / Fluct / Tlast / Tmax / t½ / % AUCexp / AUCinf / Accum Index / CLss/F / Cmin: fed
# Procedure: Part 2 involved analysing the PK parameters obtained following either single (QD) or twice daily (BD) dosing of a compound of formula (Ia) under fed conditions.
# Subjects were randomized 1:1 to receive a daily dose of 200 mg administered once daily in the morning (200 mg capsule) or twice daily (100 mg capsules BID) for a total of 10 days. PK blood samples were taken on Day 1 pre-dose and at 0.25, 0.5, 1.0, 1.5, 2, 3, 4, 8, 10, 12 and 16 hours post-dose. On Days 2 to 10, PK blood samples were taken once pre-dose, and on Days 11 to 14, at 24, 36, 48, 60, 72 and 96 hours post-dose.
# Subjects selected for participation checked into the clinical unit and were randomized to the dosing regimen receiving their first dose of study drug on the morning of Day 1 followed by PK and safety assessments through the morning of Day 2 (24 hours post-dose). Subjects on a BID regimen received their second dose of study drug approximately 12 hours after the first dose. Subjects remained confined in the clinic for dosing BID or QD through the last dose of study drug on the morning of Day 10. PK samples were collected through 96 hrs post-dose. Subjects were discharged from the clinic following collection of the 72 hr PK sample, returning to the clinic on the morning of Day 14 for the 96 hr sample collection.
# For both Parts 1 and 2, samples were processed and analysed as follows. The method extracted Q-122 and the Internal Standard (IS, Q-122 ^13C4) from human plasma using protein precipitation extraction.
# The analytes were separated by HPLC on a Phenomenex Synergi Polar-RP column, and the eluates monitored by an API4000 MS/MS detector in positive MRM mode. The extract was then assayed against a calibration curve. The data were acquired and processed by the data acquisition system Analyst® (Sciex) linked directly to the API4000 MS/MS detector and then processed in Watson LIMS™ (Thermo Scientific), where applicable. The method range is from 10.0 to 2500 ng/mL using 50 μL of matrix and has a run time of approximately 3.2 minutes per sample.
# Plasma PK parameters for each dosing regimen and dose level were calculated from the concentrations of Q-122 and its major metabolites measured in pre-dose and post-dose plasma samples. For each dose level, descriptive statistics (sample size, arithmetic means, geometric means, standard deviation, % coefficient of variation, minimum, median, and maximum) are presented.
# The pharmacokinetic results were processed according to standard non-compartmental analytical procedures. The software used was Phoenix™ WinNonlin® v 6.4 (Pharsight Corporation, USA) and Microsoft® Excel® 2010 (Microsoft Corporation). The following PK parameters were estimated from plasma data.
# [1] = 100 mg BID, Day 1, individual subjects
# [2] = 100 mg BID, Day 10, individual subjects
# [3] = 200 mg QD, Day 1, individual subjects
smiles,measurement,setting,value
c1cnc(NCc2ccc(CNc3ncccn3)cc2)nc1 [Q-122],Cmin (range over subjects),100 mg BID dosing with food,117 to 195 ng/mL
same,change of Cavg between days 1 and 10,100 mg BID dosing with food,doubled
same,increase of mean Cmax between days 1 and 10,100 mg BID dosing with food,less than 2 fold
same,trough concentrations with BID dosing relative to QD dosing,100 mg BID versus 200 mg QD,approximately double
same,AUC0-last,[1],6822 ng·h/mL and 7028 ng·h/mL and 6463 ng·h/mL and 6090 ng·h/mL and 5186 ng·h/mL
same,AUC0-tau,[1],3781 ng·h/mL and 2727 ng·h/mL and 4254 ng·h/mL and 3600 ng·h/mL and 4378 ng·h/mL
same,Cavg,[1],354.49 ng/mL and 299.97 ng/mL and 364.87 ng/mL and 232.90 ng/mL and 315.05 ng/mL and 227.25 ng/mL
same,Cmax,[1],939.00 ng/mL and 773.00 ng/mL and 845.00 ng/mL and 405.00 ng/mL and 852.00 ng/mL and 563.00 ng/mL
same,Fluct,[1],264.89% and 257.70% and 231.59% and 173.90% and 270.44% and 247.74%
same,Tlast,[1],24.00 h
same,Tmax,[1],1.00 h and 1.50 h
same,t½,[1],9.38 h and 6.21 h and 3.97 h and 3.19 h and 5.52 h and 4.66 h
same,AUC0-tau,"100 mg BID, Day 1, max",4378 ng·h/mL
same,Cavg,"100 mg BID, Day 1, max",364.87 ng/mL
same,Cmax,"100 mg BID, Day 1, max",939.00 ng/mL
same,Fluct,"100 mg BID, Day 1, max",270.44%
same,Tlast,"100 mg BID, Day 1, max",24.00 h
same,t½,"100 mg BID, Day 1, max",9.38 h
same,Cavg,"100 mg BID, Day 1, mean",299.088 ng/mL
same,Fluct,"100 mg BID, Day 1, mean",241.041%
same,Tlast,"100 mg BID, Day 1, mean",24.000 h
same,Cavg,"100 mg BID, Day 1, median",307.51 ng/mL
same,Fluct,"100 mg BID, Day 1, median",252.72%
same,Tlast,"100 mg BID, Day 1, median",24.00 h
same,AUC0-last,"100 mg BID, Day 1, min",5186 ng·h/mL
same,AUC0-tau,"100 mg BID, Day 1, min",2727 ng·h/mL
same,Cavg,"100 mg BID, Day 1, min",227.25 ng/mL
same,Cmax,"100 mg BID, Day 1, min",405.00 ng/mL
same,Fluct,"100 mg BID, Day 1, min",173.90%
same,Tlast,"100 mg BID, Day 1, min",24.00 h
same,Tmax,"100 mg BID, Day 1, min",1.00 h
same,t½,"100 mg BID, Day 1, min",3.19 h
same,% AUCexp,[2],2.24% and 1.52% and 8.16% and 4.45% and 7.33% and 4.38%
same,AUC0-last,[2],7715 ng·h/mL and 5510 ng·h/mL and 6477 ng·h/mL and 5615 ng·h/mL and 7597 ng·h/mL
same,AUC0-tau,[2],5982 ng·h/mL and 3731 ng·h/mL and 5545 ng·h/mL and 4118 ng·h/mL and 6283 ng·h/mL
same,AUCinf,[2],7834 ng·h/mL and 6000 ng·h/mL and 6779 ng·h/mL and 6059 ng·h/mL and 7945 ng·h/mL
same,Accum Index,[2],2.06 and 1.33 and 4.17 and 1.36 and 1.79 and 1.28
same,CLss/F,[2],14.28 L/h and 16.72 L/h and 26.80 L/h and 18.03 L/h and 24.29 L/h and 15.92 L/h
same,Cavg,[2],583.47 ng/mL and 498.51 ng/mL and 310.92 ng/mL and 462.09 ng/mL and 343.13 ng/mL and 523.54 ng/mL
same,Cmax,[2],1160.00 ng/mL and 865.00 ng/mL and 1050.00 ng/mL and 677.00 ng/mL and 1070.00 ng/mL
same,Cmin,[2],122.00 ng/mL (2×) and 164.00 ng/mL and 117.00 ng/mL and 155.00 ng/mL and 195.00 ng/mL
same,Fluct,[2],201.90% and 199.80% and 240.58% and 200.83% and 152.13% and 167.13%
same,Tlast,[2],48.00 h and 36.00 h (2×) and 72.00 h and 24.00 h (2×)
same,Tmax,[2],1.50 h and 1.00 h
same,t½,[2],12.52 h and 6.01 h and 30.30 h and 6.26 h and 10.19 h and 5.46 h
same,% AUCexp,"100 mg BID, Day 10, max",8.16%
same,Accum Index,"100 mg BID, Day 10, max",4.17
same,CLss/F,"100 mg BID, Day 10, max",26.80 L/h
same,Cavg,"100 mg BID, Day 10, max",583.47 ng/mL
same,Cmin,"100 mg BID, Day 10, max",195.00 ng/mL
same,Fluct,"100 mg BID, Day 10, max",240.58%
same,Tlast,"100 mg BID, Day 10, max",72.00 h
same,t½,"100 mg BID, Day 10, max",30.30 h
same,% AUCexp,"100 mg BID, Day 10, mean",4.679%
same,CLss/F,"100 mg BID, Day 10, mean",19.340 L/h
same,Cavg,"100 mg BID, Day 10, mean",453.609 ng/mL
same,Cmin,"100 mg BID, Day 10, mean",145.833 ng/mL
same,Fluct,"100 mg BID, Day 10, mean",193.726%
same,Tlast,"100 mg BID, Day 10, mean",40.000 h
same,% AUCexp,"100 mg BID, Day 10, median",4.42%
same,Accum Index,"100 mg BID, Day 10, median",1.58
same,CLss/F,"100 mg BID, Day 10, median",17.38 L/h
same,Cavg,"100 mg BID, Day 10, median",480.30 ng/mL
same,Cmin,"100 mg BID, Day 10, median",138.50 ng/mL
same,Fluct,"100 mg BID, Day 10, median",200.31%
same,Tlast,"100 mg BID, Day 10, median",36.00 h
same,% AUCexp,"100 mg BID, Day 10, min",1.52%
same,AUC0-last,"100 mg BID, Day 10, min",5510 ng·h/mL
same,AUC0-tau,"100 mg BID, Day 10, min",3731 ng·h/mL
same,AUCinf,"100 mg BID, Day 10, min",6000 ng·h/mL
same,Accum Index,"100 mg BID, Day 10, min",1.28
same,CLss/F,"100 mg BID, Day 10, min",14.28 L/h
same,Cavg,"100 mg BID, Day 10, min",310.92 ng/mL
same,Cmax,"100 mg BID, Day 10, min",677.00 ng/mL
same,Cmin,"100 mg BID, Day 10, min",117.00 ng/mL
same,Fluct,"100 mg BID, Day 10, min",152.13%
same,Tlast,"100 mg BID, Day 10, min",24 h
same,Tmax,"100 mg BID, Day 10, min",1.00 h
same,t½,"100 mg BID, Day 10, min",5.46 h
same,Cmin (range over subjects),200 mg QD dosing with food,52 to 94 ng/mL
same,change of Cmax and Cavg between Days 1 and 10,200 mg QD dosing with food,neither Cmax nor Cavg changed
same,AUC0-last,[3],6439 ng·h/mL and 1632 ng·h/mL and 6744 ng·h/mL and 8831 ng·h/mL and 12137 ng·h/mL and 12571 ng·h/mL
same,AUC0-tau,[3],8831 ng·h/mL and 12137 ng·h/mL and 12571 ng·h/mL and 6439 ng·h/mL and 1632 ng·h/mL and 6744 ng·h/mL
same,Cavg,[3],268.28 ng/mL and 67.99 ng/mL and 290.99 ng/mL and 367.97 ng/mL and 505.70 ng/mL and 523.80 ng/mL
same,Cmax,[3],980.00 ng/mL and 101.00 ng/mL and 1410.00 ng/mL and 1700.00 ng/mL and 1880.00 ng/mL and 2010.00 ng/mL
same,Fluct,[3],365.28% and 148.55% and 501.79% and 461.99% and 371.76% and 383.73%
same,Tlast,[3],24.00 h
same,t½,[3],7.07 h and 5.60 h and 4.61 h and 9.17 h and 17.12 h and 8.29 h
same,AUC0-last,"200 mg QD, Day 1, max",12571 ng·h/mL
same,AUC0-tau,"200 mg QD, Day 1, max",12571 ng·h/mL
same,Cavg,"200 mg QD, Day 1, max",523.80 ng/mL
same,Cmax,"200 mg QD, Day 1, max",2010.00 ng/mL
same,Fluct,"200 mg QD, Day 1, max",501.79%
same,Tlast,"200 mg QD, Day 1, max",24.00 h
same,t½,"200 mg QD, Day 1, max",17.12 h
same,Cavg,"200 mg QD, Day 1, mean",335.791 ng/mL
same,Fluct,"200 mg QD, Day 1, mean",372.185%
same,Tlast,"200 mg QD, Day 1, mean",24.000 h
same,Cavg,"200 mg QD, Day 1, median",324.48 ng/mL
same,Fluct,"200 mg QD, Day 1, median",377.75%
same,Tlast,"200 mg QD, Day 1, median",24.00 h
same,AUC0-last,"200 mg QD, Day 1, min",1632 ng·h/mL
same,AUC0-tau,"200 mg QD, Day 1, min",1632 ng·h/mL
same,Cavg,"200 mg QD, Day 1, min",67.99 ng/mL
same,Cmax,"200 mg QD, Day 1, min",101.00 ng/mL
same,Fluct,"200 mg QD, Day 1, min",148.55%
same,Tlast,"200 mg QD, Day 1, min",24.00 h
same,t½,"200 mg QD, Day 1, min",4.61 h
